Test results as given in US20070219161A1, “Preparation Process Of Oligoglycosaminoglycan, And Reducing End Glucuronic Acid Type Oligochondroitin Sulfate And Pharmaceutical Composition Comprising The Same” (priority 2004, published 2007).

Biological target: T1, CD44 (Homo sapiens, UniProt P16070)
T1 construct: endogenous in cells
Test: CD44 shedding induction by synthetic oligosaccharide in a cancer cell
Format: cell-based
Conditions: electrophoresis (FIG. 9) and CD44 shedding index with the state without stimulation set to 1 (FIG. 10)
Method: FIG. 8 is a flowchart showing the outline of the test method performed in Example 4.
FIG. 9 is a copy of the electrophoresis photograph in which the electrophoresis result of the test performed in Example 4 is shown.
About the compound of the formula (20) and (21) obtained in Example 1, a CD44 shedding induction ability in a cancer cell was evaluated according to the test method shown in FIG. 8.

T1 sequence (P16070 21-742, species assumed): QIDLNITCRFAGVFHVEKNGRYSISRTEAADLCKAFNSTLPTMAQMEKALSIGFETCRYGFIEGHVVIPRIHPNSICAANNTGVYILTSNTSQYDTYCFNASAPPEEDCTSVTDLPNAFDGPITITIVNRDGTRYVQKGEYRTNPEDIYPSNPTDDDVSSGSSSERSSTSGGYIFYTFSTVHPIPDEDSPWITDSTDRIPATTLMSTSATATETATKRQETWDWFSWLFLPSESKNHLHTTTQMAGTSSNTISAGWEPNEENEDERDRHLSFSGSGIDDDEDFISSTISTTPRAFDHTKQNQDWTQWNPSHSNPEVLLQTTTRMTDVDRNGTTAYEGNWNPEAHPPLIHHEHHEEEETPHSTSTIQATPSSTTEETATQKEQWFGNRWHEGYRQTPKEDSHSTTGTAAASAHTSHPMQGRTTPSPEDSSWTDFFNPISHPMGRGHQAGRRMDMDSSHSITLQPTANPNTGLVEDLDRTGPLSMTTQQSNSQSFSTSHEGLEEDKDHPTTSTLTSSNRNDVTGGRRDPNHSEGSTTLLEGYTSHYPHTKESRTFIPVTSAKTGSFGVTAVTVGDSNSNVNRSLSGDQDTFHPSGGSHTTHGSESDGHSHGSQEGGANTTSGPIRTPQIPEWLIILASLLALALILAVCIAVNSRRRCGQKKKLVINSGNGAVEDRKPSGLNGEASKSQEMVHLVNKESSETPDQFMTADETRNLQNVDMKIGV

Substance | CD44 shedding induction ability
β-D-GalNAc(4,6-di-OSO3Na)-(1->[4]-β-D-GlcA-(1->3)-β-D-GalNAc(4,6-di-OSO3Na)-(1->24)-β-D-GlcA-(1->OMP [compound of the formula (21)] | induced more strongly
β-D-GalNAc-(1->[4]-β-D-GlcA-(1->3)-β-D-GalNAc-(1->)24)-β-D-GlcA-(1->OMP [compound of the formula (20)] | induced the shedding of a CD44
